Data reported in publication PMC6838683, “Discovery of Human Signaling Systems: Pairing Peptides to G Protein-Coupled Receptors” (Cell, 2019).
Positions of bridges follow the written chain, without caps; N, C: chain ends. Residues, ends and D or L forms follow the SMILES beside them.

Tests used:
Assay type in all cases: cell-based
HA-OGR1 (GPR68) = target: T1, HA-OGR1 (GPR68) (Homo sapiens, UniProt Q15743); assay: Ca2+ mobilization assay (Fluo-4); settings: GPR68, data from resynthesized peptide, mean, SEM and n; for Emax: read-out: Emax, Ca2+ mobilization (% iono); for EC50: read-out: pEC50, Ca2+ mobilization (% iono) (converted)
T1 construct: HA; expressed in transfected cells
T1 sequence (Q15743 whole entry): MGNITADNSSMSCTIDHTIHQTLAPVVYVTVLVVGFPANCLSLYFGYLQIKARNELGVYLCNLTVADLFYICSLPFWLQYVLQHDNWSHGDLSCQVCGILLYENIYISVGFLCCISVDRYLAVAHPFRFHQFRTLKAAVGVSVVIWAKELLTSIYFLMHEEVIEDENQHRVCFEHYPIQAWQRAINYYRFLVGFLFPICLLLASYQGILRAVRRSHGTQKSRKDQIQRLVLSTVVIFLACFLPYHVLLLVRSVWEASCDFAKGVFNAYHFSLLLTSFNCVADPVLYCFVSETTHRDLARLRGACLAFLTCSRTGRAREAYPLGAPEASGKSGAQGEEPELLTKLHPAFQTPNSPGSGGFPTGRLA
Method: Peptide-dependent Ca^2+ mobilization responses were measured in HEK293 stable cell lines (HA-OGR1 (GPR68) and vector pcDNA) ([Saxena et al., 2012]) that were seeded in 96-well plates (1 × 10^5 cells/well) and cultured at 37°C with 5% CO2 to near confluence in DMEM with 10% FBS (Corning). Six hours prior to assay, medium was changed to pH 8.0 or pH 7.4 HAM’s F12 Nutrient Mixture (GIBCO) without FBS and transferred to a 37°C incubator without CO2. One hour prior to stimulation, cells were incubated in pH 8.0 or pH 7.4 HBSS with Ca^2+ and Mg^2+ (GIBCO), supplemented with 15 mM HEPES, 2 μM Fluo-4 AM (Invitrogen) and 1.5 mM probenecid ([…] to prevent Fluo-4 efflux) as described previously ([Pera et al., 2018]). Indicated peptides were pipetted using an automated system and emission signal was recorded at 525 nm after excitation at 485 nm using Flex Station III (Molecular Devices). Ca^2+ mobilization responses were determined by subtracting basal fluorescence from the net peak of agonist-induced fluorescence. Ionomycin (1 μM) was used to calculate the maximum Ca^2+ signal to normalize peptide-mediated responses.

GPR68 [1] = target: T2, GPR68 (Homo sapiens, UniProt Q15743); assay: Dynamic mass redistribution (DMR), concentration-response; set-up: hIL-2Ra signal peptide (N); expressed in transfected cells; settings: GPR68, mean, SEM and n; for EC50: read-out: pEC50, DMR (AUC) (converted)
T2 sequence (Q15743 2-365 limits assumed): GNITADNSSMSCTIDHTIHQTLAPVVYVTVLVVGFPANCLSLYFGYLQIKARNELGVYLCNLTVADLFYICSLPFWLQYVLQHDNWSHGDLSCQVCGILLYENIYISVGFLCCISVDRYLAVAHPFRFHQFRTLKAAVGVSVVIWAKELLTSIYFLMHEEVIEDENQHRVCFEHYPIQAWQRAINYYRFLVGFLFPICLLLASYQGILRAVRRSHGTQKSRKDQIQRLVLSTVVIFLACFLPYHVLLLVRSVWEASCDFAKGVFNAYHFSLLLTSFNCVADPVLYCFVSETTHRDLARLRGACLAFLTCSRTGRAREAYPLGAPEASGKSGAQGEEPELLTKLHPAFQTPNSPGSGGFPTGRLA
How it was run: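 Doxycycline-induced (0.1 μg/ml) SNAP-tagged receptors in TREx 293 cells, equilibrated 90 min at 22°C in HEPES-buffered HBSS, pH 7.4, with 0.1% DMSO. Peptide-evoked optical wavelength shift recorded for 60 min at 22°C, buffer/solvent corrected and quantified as area under the curve. Mean ± SEM of at least 3 independent experiments.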

GPR68 [2] = target: T2, GPR68; assay: Real-time receptor internalization (TR-FRET), concentration-response; set-up: hIL-2Ra signal peptide (N); expressed in transfected cells; settings: GPR68, mean, SEM and n
How it was run: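 Doxycycline-induced SNAP-tagged receptor cells had surface receptors labelled with Lumi4-Tb and fluorescein-O-acetic acid added. TR-FRET internalization after peptide addition was recorded for 60 min at 37°C (ex 340, em 520/615 nm). Area under the curve, normalized to plate average, gave concentration-response curves.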

Row | SMILES | Emax (HA-OGR1 (GPR68)) | EC50 (HA-OGR1 (GPR68)) | Emax, DMR (AUC) (GPR68 [1]) | EC50 (GPR68 [1]) | Emax, Internalization (AUC) (GPR68 [2]) | EC50 (GPR68 [2]; read-out: pEC50, Internalization (AUC) (converted)) | pEC50, Internalization (AUC) (GPR68 [2])
1 | CC[C@H](C)[C@H](NC(=O)[C@H](CCCNC(=N)N)NC(=O)[C@H](C)NC(=O)CNC(=O)[C@H](CCCCN)NC(=O)[C@H](CCCNC(=N)N)NC(=O)[C@@H](NC(=O)[C@H](C)NC(=O)[C@@H]1CSSC[C@H](NC(=O)[C@H](CCSC)NC(=O)[C@@H]2CCCN2C(=O)[C@@H](NC(=O)[C@H](CCC(N)=O)NC(=O)CNC(=O)[C@@H](N)Cc2ccc(O)cc2)C(C)C)C(=O)N[C@@H](CC(=O)O)C(=O)N[C@@H](C)C(=O)NCC(=O)N[C@@H](CCC(=O)O)C(=O)N[C@@H](CCC(N)=O)C(=O)N1)C(C)C)C(N)=O [CART(42-89)_(9-28)] (H-YGQVPMCDAGEQCAVRKGARI-NH2; disulfide 7-13; N-terminus assumed) | 79.3% | 3310 nM | 944453.3 | 1050 nM | 9.4 | 3550 nM | 
2 | CC(C)C[C@H](NC(=O)[C@@H]1CCCN1C(=O)[C@H](Cc1ccccc1)NC(=O)[C@H](C)NC(=O)[C@H](CCC(=O)O)NC(=O)[C@H](C)NC(=O)[C@H](CO)NC(=O)[C@H](CCC(=O)O)NC(=O)[C@H](CC(N)=O)NC(=O)[C@H](CCC(=O)O)NC(=O)[C@H](C)NC(=O)[C@@H](NC(=O)[C@H](CC(N)=O)NC(=O)[C@@H]1CCCN1C(=O)[C@H](Cc1ccc(O)cc1)NC(=O)[C@@H](NC(=O)[C@H](CCCCN)NC(=O)[C@@H](NC(=O)[C@@H]1CCCN1C(=O)[C@H](CCCNC(=N)N)NC(=O)[C@@H](N)CCCNC(=N)N)C(C)C)C(C)C)C(C)C)C(=O)N[C@@H](CCC(=O)O)C(=O)N[C@@H](Cc1ccccc1)C(=O)O [Corticotropin_(17-40)] (H-RRPVKVYPNVAENESAEAFPLEF-OH; N-terminus and C-terminus assumed) | 63.3% | 1820 nM | 781397.0 | 1290 nM | 4.7 |  | Response >1uM
